This note sets out measurements from patent US11279691B2, “Substituted pyridine and pyrazine compounds as PDE4 inhibitors” (Dart Neuroscience LLC, priority 2013, dated 2022).

T1 sequence (Q08499 1-673 isoform Q08499-2): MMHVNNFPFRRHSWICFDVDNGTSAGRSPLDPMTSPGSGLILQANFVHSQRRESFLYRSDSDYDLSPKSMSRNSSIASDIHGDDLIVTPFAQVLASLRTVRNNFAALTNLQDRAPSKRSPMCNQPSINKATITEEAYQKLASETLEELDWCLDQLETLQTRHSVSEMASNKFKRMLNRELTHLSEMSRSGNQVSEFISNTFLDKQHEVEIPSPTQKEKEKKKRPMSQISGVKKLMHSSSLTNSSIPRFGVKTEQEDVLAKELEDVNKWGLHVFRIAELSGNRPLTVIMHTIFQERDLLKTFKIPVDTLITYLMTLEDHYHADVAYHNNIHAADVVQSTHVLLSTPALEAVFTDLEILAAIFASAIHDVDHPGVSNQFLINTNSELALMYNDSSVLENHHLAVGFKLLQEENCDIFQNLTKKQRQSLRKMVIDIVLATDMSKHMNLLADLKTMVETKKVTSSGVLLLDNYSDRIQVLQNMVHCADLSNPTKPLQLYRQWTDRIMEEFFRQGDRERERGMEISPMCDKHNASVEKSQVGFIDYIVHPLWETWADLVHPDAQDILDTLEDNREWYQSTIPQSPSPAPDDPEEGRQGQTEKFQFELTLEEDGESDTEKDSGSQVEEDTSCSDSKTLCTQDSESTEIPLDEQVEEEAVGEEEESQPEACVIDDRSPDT

This experiment concerns the target T1, PDE4D3 (Homo sapiens, UniProt Q08499).
T1 construct: GST
Type of experiment: biochemical. The note with it: GST-tagged PDE4D3, 200 nM FAM-cAMP, 11-point dose-response; read-out: PD4d3 pEC50 (converted).
As for `COc1ncc(Cc2cnc(OCC(C)(C)O)nc2)cc1-c1cccc(Cl)c1` [Example 318, 1-[(5-{[5-(3-Chlorophenyl)-6-methoxypyridin-3-yl]methyl}pyrimidin-2-yl)oxy]-2-methylpropan-2-ol], the EC50 is 1000 to 10000 nM.

As to `CCOc1ccc(Cc2cnc(OC)c(-c3cccc(Cl)c3)c2)nc1` [Example 286, 3-(3-Chlorophenyl)-5((5-ethoxypyridin-2-yl)methyl)-2-methoxy pyridine], the EC50 is greater than 10000 nM.

`CCOc1ncc(Cn2cnc(C(N)=O)c2)nc1-c1ccc(F)c(F)c1` [Example 314, 1-{[6-(3,4-Difluorophenyl)-5-ethoxypyrazin-2-yl]methyl}-1H-imidazole-4-carboxamide]: the EC50 was 100 to 1000 nM.

For the compound `CCOc1ncc(Cn2nc(C)cc2CO)cc1-c1cccc(Cl)c1` [Example 320, (1-{[5-(3-Chlorophenyl)-6-ethoxypyridin-3-yl]methyl}-3-methyl-1H-pyrazol-5-yl)methanol], the EC50 was greater than 10000 nM.

Take `COc1ncc(Cc2cnc(C#N)nc2)nc1-c1cccc(OC(F)F)c1` [Example 107, 5-({6-[3-(Difluoromethoxy)phenyl]-5-methoxypyrazin-2-yl}methyl)pyrimidine-2-carbonitrile]: the EC50 was 100 to 1000 nM.

`COc1ncc(Cc2cnc(N)nc2)cc1-c1ccnc(C#N)c1` [Example 347, 4-{5-[(2-Aminopyrimidin-5-yl)methyl]-2-methoxypyridin-3-yl}pyridine-2-carbonitrile]: the EC50 was 100 to 1000 nM.

With `CCOC(=O)Cc1ccc(Cc2cnc(OC)c(-c3cccc(Cl)c3)c2)cc1` [Intermediate 50, Ethyl 2-(4-{[5-(3-chlorophenyl)-6-methoxypyridin-3-yl]methyl}phenyl)acetate], the EC50 was 100 to 1000 nM.

Turning to `CCOc1ncc(Cn2cnc(CO)n2)cc1-c1cncc(Cl)c1` [Example 329, (1-{[5-(5-Chloropyridin-3-yl)-6-ethoxypyridin-3-yl]methyl}-1H-1,2,4-triazol-3-yl)methanol], the EC50 was 1000 to 10000 nM.

Take `CCOc1ncc(Cn2cnc(CO)n2)cc1-c1ccc(F)c(F)c1` [Example 340, (1-{[5-(3,4-Difluorophenyl)-6-ethoxypyridin-3-yl]methyl}-1H-1,2,4-triazol-3-yl)methanol]: the EC50 was less than 100 nM.

As to `COc1ncc(Cc2cnc(OC(F)F)nc2)cc1-c1cccc(Cl)c1` [Example 304, 5-((5-(3-Chlorophenyl)-6-methoxypyridin-3-yl)methyl)-2-(difluoromethoxy)pyrimidine], the EC50 is 100 to 1000 nM.

With `COc1ncc(Cn2ccc(C(N)=O)n2)cc1-c1cccc(Cl)c1` [Example 308, 1-{[5-(3-Chlorophenyl)-6-methoxypyridin-3-yl]methyl}-1H-pyrazole-3-carboxamide], the EC50 is 100 to 1000 nM.

Regarding `CCOc1ncc(Cn2nc(CO)cc2C)nc1-c1cccc(Cl)c1` [Example 323, (1-{[6-(3-Chlorophenyl)-5-ethoxypyrazin-2-yl]methyl}-5-methyl-1H-pyrazol-3-yl)methanol], the EC50 is 1000 to 10000 nM.

In the case of `CCOc1ncc(Cc2cnc(N)nc2)cc1-c1ccc(F)cc1` [Example 350, 5-{[6-Ethoxy-5-(4-fluorophenyl)pyridin-3-yl]methyl}pyrimidin-2-amine], the EC50 is less than 100 nM.

In the case of `COc1ncc(Cn2nnc(CO)n2)cc1-c1ccc(F)c(F)c1` [Example 383, (2-{[5-(3,4-Difluorophenyl)-6-methoxypyridin-3-yl]methyl}-2H-1,2,3,4-tetrazol-5-yl)methanol], the EC50 was 100 to 1000 nM.

In the case of `OCc1ncn(Cc2cnc(OCC(F)(F)F)c(-c3cccc(Cl)c3)c2)n1` [Example 300, (1-((5-(3-Chlorophenyl)-6-(2,2,2-trifluoroethoxy)pyridin-3-yl)methyl)-1H-1,2,4-triazol-3-yl)methanol], the EC50 is 100 to 1000 nM.

Regarding `COc1ncc(Cn2nnnc2CO)cc1-c1ccc(F)c(F)c1` [Example 384, (1-{[5-(3,4-Difluorophenyl)-6-methoxypyridin-3-yl]methyl}-1H-1,2,3,4-tetrazol-5-yl)methanol], the EC50 was 1000 to 10000 nM.

For the compound `COc1ncc(Cn2nnnc2CO)cc1-c1ccc(Cl)c(F)c1` [Example 386, (1-{[5-(4-Chloro-3-fluorophenyl)-6-methoxypyridin-3-yl]methyl}-1H-1,2,3,4-tetrazol-5-yl)methanol], the EC50 is 1000 to 10000 nM.

Turning to `CCOc1ncc(Cn2cnc(CO)n2)cc1-c1ccc(Cl)cc1` [Example 328, (1-{[5-(4-Chlorophenyl)-6-ethoxypyridin-3-yl]methyl}-1H-1,2,4-triazol-3-yl)methanol], the EC50 was 100 to 1000 nM.

Take `NC(=O)Cc1ncc(Cc2cnc(OCC(F)F)c(-c3cccc(Cl)c3)c2)cn1` [Example 371, 2-(5-{[5-(3-Chlorophenyl)-6-(2,2-difluoroethoxy)pyridin-3-yl]methyl}pyrimidin-2-yl)acetamide]: the EC50 is less than 100 nM.

For `COc1ncc(Cc2cnc(C)cn2)cc1-c1cccc(Cl)c1` [Example 377, 2-{[5-(3-Chlorophenyl)-6-methoxypyridin-3-yl]methyl}-5-methylpyrazine], the EC50 was less than 100 nM.

In the case of `CCOc1cc(-c2cc(Cc3cnc(N)nc3)cnc2OC)ccc1F` [Example 355, 5-{[5-(3-Ethoxy-4-fluorophenyl)-6-methoxypyridin-3-yl]methyl}pyrimidin-2-amine], the EC50 is 100 to 1000 nM.

Turning to `CCOc1ncc(Cn2nc(CO)cc2C)cc1-c1cccc(Cl)c1` [Example 325, (1-{[5-(3-Chlorophenyl)-6-ethoxypyridin-3-yl]methyl}-5-methyl-1H-pyrazol-3-yl)methanol], the EC50 is less than 100 nM.

On to `COc1ncc(Cn2nnnc2C)cc1-c1cccc(Cl)c1` [Example 380, 3-(3-Chlorophenyl)-2-methoxy-5-[(5-methyl-1H-1,2,3,4-tetrazol-1-yl)methyl]pyridine], for which the EC50 is less than 100 nM.

For the compound `COc1ncc(Cn2cc(CO)nc2C)cc1-c1cccc(Cl)c1` [Example 346, (1-{[5-(3-Chlorophenyl)-6-methoxypyridin-3-yl]methyl}-2-methyl-1H-imidazol-4-yl)methanol], the EC50 was 100 to 1000 nM.

For `COc1cc(-c2cc(Cn3cnc(N)n3)cnc2OC)ccc1F` [Example 407, 1-{[5-(4-Fluoro-3-methoxyphenyl)-6-methoxypyridin-3-yl]methyl}-1H-1,2,4-triazol-3-amine], the EC50 was 1000 to 10000 nM.

Consider `COc1ncc(Cc2cnc(CC(N)=O)nc2)cc1-c1cccc(Cl)c1` [Example 369, 2-(5-{[5-(3-Chlorophenyl)-6-methoxypyridin-3-yl]methyl}pyrimidin-2-yl)acetamide], for which the EC50 is less than 100 nM.

For the compound `NC(=O)Cc1ncc(Cc2cnc(OCC(F)(F)F)c(-c3cccc(Cl)c3)c2)cn1` [Example 370, 2-(5-{[5-(3-Chlorophenyl)-6-(2,2,2-trifluoroethoxy)pyridin-3-yl]methyl}pyrimidin-2-yl)acetamide], the EC50 was 100 to 1000 nM.

Regarding `COc1ncc(Cc2cnc(N)nc2)cc1-c1ccc(F)c(C)c1` [Example 357, 5-{[5-(4-Fluoro-3-methylphenyl)-6-methoxypyridin-3-yl]methyl}pyrimidin-2-amine], the EC50 is 100 to 1000 nM.

On to `COc1ncc(Cc2cnc(N)nc2)cc1-c1ccc(F)c(Cl)c1` [Example 359, 5-{[5-(3-Chloro-4-fluorophenyl)-6-methoxypyridin-3-yl]methyl}pyrimidin-2-amine], for which the EC50 is less than 100 nM.

Consider `NC(=O)Cc1ncn(Cc2cnc(OC(F)F)c(-c3cccc(Cl)c3)c2)n1` [Example 372, 2-(1-{[5-(3-Chlorophenyl)-6-(difluoromethoxy)pyridin-3-yl]methyl}-1H-1,2,4-triazol-3-yl)acetamide], for which the EC50 was less than 100 nM.

For the compound `CCOc1cc(-c2cc(Cc3cnc(N)nc3)cnc2OC)ccn1` [Example 349, 5-{[5-(2-Ethoxypyridin-4-yl)-6-methoxypyridin-3-yl]methyl}pyrimidin-2-amine], the EC50 was less than 100 nM.

Consider `CCOc1ncc(Cn2nnc(C)n2)cc1-c1ccnc(OC(F)F)c1` [Example 394, 3-[2-(Difluoromethoxy)pyridin-4-yl]-2-ethoxy-5-[(5-methyl-2H-1,2,3,4-tetrazol-2-yl)methyl]pyridine], for which the EC50 was less than 100 nM.

Turning to `CCOc1cccc(-c2cc(Cn3nnnc3C)cnc2OCC)c1` [Example 401, 2-Ethoxy-3-(3-ethoxyphenyl)-5-[(5-methyl-1H-1,2,3,4-tetrazol-1-yl)methyl]pyridine], the EC50 was 100 to 1000 nM.

For `COc1ncc(Cc2cnc(N)cn2)cc1-c1ccc(F)c(Cl)c1` [Example 288, 5-((5-(3-Chloro-4-fluorophenyl)-6-methoxypyridin-3-yl)methyl)pyrazin-2-amine], the EC50 is less than 100 nM.

Consider `CCOc1ncc(Cc2cncc(F)c2)cc1-c1ccnc(OC(F)F)c1` [Example 306, 3-[2-(Difluoromethoxy)pyridin-4-yl]-2-ethoxy-5-[(5-fluoropyridin-3-yl)methyl]pyridine], for which the EC50 is less than 100 nM.

For the compound `CCOc1ncc(Cn2cnc(CO)n2)cc1-c1cccc(N(C)C)c1` [Example 335, [1-({5-[3-(Dimethylamino)phenyl]-6-ethoxypyridin-3-yl}methyl)-1H-1,2,4-triazol-3-yl]methanol], the EC50 is 1000 to 10000 nM.

With `COc1ncc(Cn2ccc(C(N)=O)n2)cc1-c1ccnc(C#N)c1` [Example 307, 1-{[5-(2-Cyanopyridin-4-yl)-6-methoxypyridin-3-yl]methyl}-1H-pyrazole-3-carboxamide], the EC50 was 1000 to 10000 nM.

Take `COc1ncc(Cc2cnc(OCC(N)=O)nc2)cc1-c1cccc(Cl)c1` [Example 298, 2-((5-((5-(3-Chlorophenyl)-6-methoxypyridin-3-yl)methyl)pyrimidin-2-yl)oxy)acetamide]: the EC50 is less than 100 nM.

In the case of `CCOc1ncc(Cn2nnc(C)n2)cc1-c1ccc(F)c(F)c1` [Example 393, 3-(3,4-Difluorophenyl)-2-ethoxy-5-[(5-methyl-2H-1,2,3,4-tetrazol-2-yl)methyl]pyridine], the EC50 is less than 100 nM.

As to `COc1ncc(Cn2cc(C(F)F)nc2C)cc1-c1ccnc(OC(F)F)c1` [Example 297, 2′-(Difluoromethoxy)-5-((4-(difluoromethyl)-2-methyl-1H-imidazol-1-yl)methyl)-2-methoxy-3,4′-bipyridine], the EC50 is 100 to 1000 nM.
